Values of other authors as cited in patent US7517991B2, “N-sulfonylpiperidine cannabinoid receptor 1 antagonists” (Bristol-Myers Squibb Company, priority 2004, dated 2009).
Like-named read-outs stand apart in the source and are kept apart here.

Columns and labels:
[1] = human subjects, 16 week trial period, Phase IIb
[2] = chronic administration for two weeks

SMILES	body weight [1]	body weight [2]
Cc1c(C(=O)NN2CCCCC2)nn(-c2ccc(Cl)cc2Cl)c1-c1ccc(Cl)cc1 [SR-141716]	dose-dependently reduced body weight	
Cc1c(C(=O)NN2CCCCC2)nn(-c2ccc(Cl)cc2Cl)c1-c1ccc(I)cc1 [AM-251]		substantial body weight reduction
